Assay results: publication PMC3178264 (Nature chemical biology, 2009)
One block for each molecule: values may come before it.

Legend:
human UNG = human UNG (Homo sapiens, UniProt P13051); format: biochemical
[1] = cited from earlier work
[2] = cited from earlier work; remark: listed apart in the source

Chain of human UNG (P13051 whole entry): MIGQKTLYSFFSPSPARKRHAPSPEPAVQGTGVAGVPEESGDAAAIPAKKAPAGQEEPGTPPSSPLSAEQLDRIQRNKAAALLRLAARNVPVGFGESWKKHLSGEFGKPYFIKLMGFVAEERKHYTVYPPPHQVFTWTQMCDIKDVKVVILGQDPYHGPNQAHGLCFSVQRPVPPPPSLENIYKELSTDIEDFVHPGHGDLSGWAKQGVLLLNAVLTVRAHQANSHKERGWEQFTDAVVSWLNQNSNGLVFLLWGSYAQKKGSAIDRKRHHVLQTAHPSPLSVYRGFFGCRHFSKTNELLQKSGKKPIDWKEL

free energy change more negative than DO (human UNG; MA1 compared with DO): -8.37 kJ/mol
Compound: O=C(O)c1cccc(/C=N/OCCCNCc2cc(=O)[nH]c(=O)[nH]2)c1 [compound 6]

ΔΔG of binding on switching amine to oxime linkages (human UNG; difference free energies relative to DA (27), Figure 4): -2.5 kJ/mol
Compound: O=C(O)c1cccc(CNCCCO/N=C/c2cc(=O)[nH]c(=O)[nH]2)c1 [compound 22]

Compound: C=CC[C@@H]1/C=C(\C)C[C@H](C)C[C@H](OC)[C@H]2O[C@@](O)(C(=O)C(=O)N3CCCC[C@H]3C(=O)O[C@H](/C(C)=C/[C@@H]3CC[C@@H](O)[C@H](OC)C3)[C@H](C)[C@@H](O)CC1=O)[C@H](C)C[C@@H]2OC [FK506]
binds less tightly than expected from summing the binding free energies of its component fragments [1]: about 3 kcal/mol

Compound: CNCc1ccccc1 [N-methyl-benzyl amine]
pKa [2]: 9.8
